The values that follow come from PubChem BioAssay (NCI).

Some test systems named below: ACHN renal; COLO 205 colon; HCT-15 colon; HOP-62 NSCLC; KM12 colon; NCI-H226 lung; SF-539 CNS; SNB-19 CNS; U251 CNS; UO-31 renal.
What all share (assay): NCI-60 cell line screen, 48 h

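Interpolation was linear, between the two tested concentrations surrounding the appropriate level; five concentrations were tested over 48 hours in 96-well plates. GI50 is the concentration that inhibits growth by half. Definition used: TGI = concentration required for complete inhibition of growth.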 Where only a bound is given, the exact number is not on record here.

Regarding `COc1cc2c(cc1C)n(O)c(C)c(C(=O)C/C(=N/NC(=O)C[N+](C)(C)C)C(=O)Nc1cccc(Cl)c1C)[n+]2=O`, the TGI with ACHN renal, in the assay on COLO 205 colon, in the assay with HCT-15 colon, in the assay with HOP-62 NSCLC, in the assay on KM12 colon and in the assay with NCI-H226 lung was above 100 µM each time. The TGI in the assay on SF-539 CNS, in the assay with SNB-19 CNS, in the assay with U251 CNS and with UO-31 renal was above 100 µM each time.
`Oc1ccccc1-n1c(-c2ccccc2)ccc1-c1ccccc1`: the GI50 with ACHN renal was 9.13 µM; in the assay with COLO 205 colon, 15.3 µM; with HCT-15 colon it was 5.57 µM; in the assay on HOP-62 NSCLC it was 11.3 µM; with KM12 colon, 4.05 µM; with NCI-H226 lung, 8.69 µM. The GI50 with SF-539 CNS was 15.2 µM; in the assay with SNB-19 CNS, 12.7 µM; in the assay on U251 CNS it was 7.66 µM; in the assay with UO-31 renal, 2.17 µM. In addition, the TGI in the assay on ACHN renal came to 21.2 µM; in the assay on COLO 205 colon, 56.6 µM; with HCT-15 colon, 28.7 µM; in the assay with HOP-62 NSCLC, 24.2 µM; in the assay with KM12 colon, 19.3 µM; with NCI-H226 lung, 21.9 µM. Moreover, the TGI in the assay on SF-539 CNS is 31.9 µM; with SNB-19 CNS it was 34.3 µM; in the assay on U251 CNS, 20.6 µM; in the assay with UO-31 renal it was 10.6 µM.
With `Cc1cc(C)nc(NS(=O)(=O)c2ccc(NC(=O)c3cccc4cc5ccccc5nc34)cc2)n1`, the TGI with ACHN renal was above 100 µM; with COLO 205 colon it was above 100 µM; in the assay with HCT-15 colon, 58.5 µM; with HOP-62 NSCLC, above 100 µM; with KM12 colon it was 84.9 µM; with NCI-H226 lung it was 46.5 µM. In addition, the TGI in the assay on SF-539 CNS was 34 µM; in the assay with SNB-19 CNS, 90.7 µM; in the assay with U251 CNS, above 100 µM; in the assay on UO-31 renal, above 100 µM.
Take `COc1cc(C2C(C(=O)Nc3ccccc3)=C(C)NC(C)=C2C(=O)Nc2ccccc2)ccc1O`: the TGI with ACHN renal is above 100 µM; with COLO 205 colon it was 60.4 µM; in the assay with HCT-15 colon, above 100 µM; in the assay on HOP-62 NSCLC it was above 100 µM; with KM12 colon, above 100 µM; in the assay with NCI-H226 lung it was above 100 µM. Besides, the TGI was 52.9 µM in the assay with SF-539 CNS, above 100 µM in the assay with SNB-19 CNS, above 100 µM in the assay with U251 CNS and above 100 µM in the assay on UO-31 renal.
Regarding `CC1(C)OCN(c2ccc(Cl)cc2)Cn2c1nc1ccccc12`, the TGI was above 100 µM with ACHN renal; 12 µM in the assay with COLO 205 colon; above 100 µM in the assay on HCT-15 colon; above 100 µM in the assay on HOP-62 NSCLC; above 54.1 µM in the assay with KM12 colon; above 100 µM with NCI-H226 lung. Further, the TGI was above 100 µM in the assay with SF-539 CNS, above 100 µM with SNB-19 CNS, above 100 µM in the assay on U251 CNS and 97.1 µM in the assay with UO-31 renal.
For `COc1ccc2c3c(c(OCCCN(C)C)nc2c1)-c1ccc(Cl)cc1C3=O`, the GI50 in the assay on ACHN renal was 1.26 µM; with COLO 205 colon it was 5.57 µM; in the assay with HCT-15 colon it was 1.79 µM; in the assay with HOP-62 NSCLC, 7.71 µM; with KM12 colon, 4.01 µM; in the assay on NCI-H226 lung, 3.52 µM. The GI50 in the assay with SF-539 CNS is 8.2 µM; in the assay on SNB-19 CNS, 8.81 µM; with U251 CNS, 4.74 µM; with UO-31 renal it was 1.51 µM. The TGI was 4.26 µM with ACHN renal; 26.6 µM in the assay on COLO 205 colon; 10.6 µM with HCT-15 colon; 25.3 µM in the assay on HOP-62 NSCLC; 18 µM with KM12 colon; 21.7 µM with NCI-H226 lung. In addition, the TGI with SF-539 CNS worked out at 21.3 µM; in the assay with SNB-19 CNS, 28.2 µM; in the assay with U251 CNS, 16.6 µM; with UO-31 renal, 11.1 µM.
With `O=c1c([Se]c2coc3ccccc3c2=O)coc2ccccc12`, the TGI in the assay with ACHN renal was 32.1 µM; in the assay on COLO 205 colon it was 29.7 µM; with HCT-15 colon it was 30.8 µM; in the assay on HOP-62 NSCLC it was 21.1 µM; with KM12 colon, 23.4 µM; in the assay with NCI-H226 lung, 28.2 µM. Moreover, the TGI in the assay on SF-539 CNS was determined as 24.2 µM; in the assay on SNB-19 CNS, 27.4 µM; in the assay with U251 CNS, 19.8 µM; with UO-31 renal it was 26.3 µM.
